Assay [1] concerns the target T1, Transcriptional activator protein LasR (Pseudomonas aeruginosa (strain ATCC 15692 / PAO1 / 1C / PRS 101 / LMG12228)) (UniProt P25084).
T1 sequence (whole entry): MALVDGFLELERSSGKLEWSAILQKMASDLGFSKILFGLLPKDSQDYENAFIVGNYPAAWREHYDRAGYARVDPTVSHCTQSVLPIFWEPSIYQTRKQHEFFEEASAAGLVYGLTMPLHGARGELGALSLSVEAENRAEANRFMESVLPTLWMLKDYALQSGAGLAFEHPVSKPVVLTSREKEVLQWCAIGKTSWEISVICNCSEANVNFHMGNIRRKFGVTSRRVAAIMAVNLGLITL
Put plainly: Inhibition of Pseudomonas aeruginosa PAO1 LasR at 200 uM relative to control.

A further assay deals with Elastase (Pseudomonas aeruginosa (strain ATCC 15692 / PAO1 / 1C / PRS 101 / LMG12228), UniProt P14756). Put plainly: Inhibition of Pseudomonas aeruginosa LasB elastase using aminobenzoyl-Ala-Gly-Leu-Ala-p-nitro-benzyl-amide as substrate b microtiter-based fluorimetric assay.
Sequence of Elastase (P14756 whole entry): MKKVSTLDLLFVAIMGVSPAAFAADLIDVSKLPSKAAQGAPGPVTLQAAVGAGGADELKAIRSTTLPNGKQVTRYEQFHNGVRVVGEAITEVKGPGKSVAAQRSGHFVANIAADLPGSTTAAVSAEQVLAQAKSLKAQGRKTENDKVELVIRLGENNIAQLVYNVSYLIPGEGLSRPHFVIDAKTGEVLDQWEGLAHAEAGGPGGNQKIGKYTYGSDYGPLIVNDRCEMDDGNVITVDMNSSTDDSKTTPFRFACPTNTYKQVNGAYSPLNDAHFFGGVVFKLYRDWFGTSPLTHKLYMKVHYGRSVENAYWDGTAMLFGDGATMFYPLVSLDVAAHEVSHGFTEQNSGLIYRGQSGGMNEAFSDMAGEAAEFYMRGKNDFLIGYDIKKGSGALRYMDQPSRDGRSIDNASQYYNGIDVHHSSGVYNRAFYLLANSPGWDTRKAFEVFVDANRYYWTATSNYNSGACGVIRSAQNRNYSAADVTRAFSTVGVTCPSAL
The nature of assay [2]: Antagonist activity at Pseudomonas aeruginosa MvfR.
For assay [3], the system named is Pseudomonas aeruginosa. In words: Antimicrobial activity against Pseudomonas aeruginosa assessed as reduction in bacterial growth. Type of assay: functional, organism-based.
The subject of assay [4] is Pseudomonas aeruginosa. In words: Antibacterial activity against Pseudomonas aeruginosa PAO1 assessed as reduction in bacterial growth. The assay is classed as functional.
Assay [5] relates to Pseudomonas aeruginosa. In words: Antagonist activity at Pseudomonas aeruginosa MvfR at 15 uM relative to control. On the set-up: scale not given: the % may be the effect or the level left. The conditions noted are these: filed as antagonist.
Assay [6] is described as follows: Inhibition of bacterial FabH. On the set-up: species or system Bacteria.
Assay [7] deals with Pseudomonas aeruginosa. Put plainly: Antimicrobial activity against polymyxin resistant Pseudomonas aeruginosa assessed as reduction in bacterial growth. The assay is classed as functional.
The subject of assay [8] is Pseudomonas aeruginosa. Put plainly: Downregulation of c-di-GMP level in Pseudomonas aeruginosa PA14 planktonic cells harboring wspR gene mutation at 50 uM incubated for 24 hrs by HPLC analysis. The assay is classed as functional.
For assay [9], the target named is T2, PA-I galactophilic lectin (Pseudomonas aeruginosa (strain ATCC 15692 / PAO1 / 1C / PRS 101 / LMG12228), UniProt Q05097).
T2 sequence (Q05097 whole entry): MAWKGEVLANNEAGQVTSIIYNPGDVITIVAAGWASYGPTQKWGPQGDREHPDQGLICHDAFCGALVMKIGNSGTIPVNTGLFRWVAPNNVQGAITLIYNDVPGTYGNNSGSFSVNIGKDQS
In words: Binding affinity to Pseudomonas aeruginosa PAO1 LecA assessed as dissociation constant.

The species named for another assay is Homo sapiens. Put plainly: Inhibition of elastase (unknown origin) at 10 uM relative to control.

pIC50, pKd: −log10 of the molar value. Converted amounts (≈) assume the structure as drawn. Bridge positions count the residues as written; N and C are the ends. Square brackets hold non-standard residues; d marks the D form. Peptide text beside a SMILES is read from it. * marks the point of attachment. Gly(octyl) = CCCCCCCC[C@H](N)C(=O)O; Heptanoyl(6-Me) = CC(C)CCCCC(=O)*; Octanoyl = CCCCCCCC(=O)*; Dab = NCC[C@H](N)C(=O)O

`O=C(CCCc1c[nH]c2ccccc12)N[C@H]1CCOC1=O`: in assay [1], the inhibition (commonly the percentage by which the read-out fell short of the control) was 66%.
Turning to `CC(=O)SCC(=O)Nc1cc(C)c(Br)cc1Cl`, the pIC50 – broadly, −log10 of the IC50, conventionally taken in molar units – against Elastase was 5.22.
Consider `O=C(Cc1ccc(Br)cc1)N[C@H]1CCOC1=O`, for which the inhibition in [1] worked out at 77%.
Molecule `Cc1c(O)c(=S)ccn1Cc1ccc(-c2ccccc2)cc1` gave a pIC50 against Elastase of 5.52.
Molecule `CCCCCCCCCc1nc2cc(Cl)ccc2c(=O)n1N` showed a pIC50 in assay [2] of 7.30.
For the molecule `CC(=O)Oc1cccc(C(=O)NCCCC(CCCNC(=O)c2cccc(OC(C)=O)c2OC(C)=O)(CCCNC(=O)c2cccc(OC(C)=O)c2OC(C)=O)NC(=O)CCC(=O)N[C@@H](C(=O)N[C@@H]2C(=O)N3[C@@H]2SC(C)(C)[C@@H]3C(=O)O)c2ccccc2)c1OC(C)=O`, the MIC (as a rule, the least concentration at which growth counts as inhibited) in the assay on Pseudomonas aeruginosa [3] was 0.39 µM (≈ 0.505 µg/mL); in the assay with Pseudomonas aeruginosa [4] it was over 200 µM.
As for `CCCCCCCc1cc(=O)c2cc([N+](=O)[O-])ccc2[nH]1`, the Activity in the assay with Pseudomonas aeruginosa [5] amounted to 44%.
`CC(=O)Oc1cccc(C(=O)NCCCC(CCCNC(=O)c2cccc(OC(C)=O)c2OC(C)=O)(CCCNC(=O)c2cccc(OC(C)=O)c2OC(C)=O)NC(=O)CCC(=O)N[C@@H](C(=O)N[C@@H]2C(=O)N3[C@@H]2SC(C)(C)[C@@H]3C(=O)O)c2ccc(O)cc2)c1OC(C)=O`: the MIC in the assay on Pseudomonas aeruginosa [3] is 0.39 µM (≈ 0.511 µg/mL); in the assay on Pseudomonas aeruginosa [4], over 200 µM.
Take `CCN(CC)S(=O)(=O)c1cccc(C(=O)Nc2cccc(O)c2C(=O)O)c1`: the pIC50 in assay [6] was 4.46.
For the molecule `CC(C)CCCCC(=O)N[C@@H](CCN)C(=O)N[C@H](C(=O)N[C@@H](CCN)C(=O)N[C@H]1CCNC(=O)[C@H]([C@@H](C)O)NC(=O)[C@H](CCN)NC(=O)[C@H](CCN)NC(=O)[C@H](CC(C)C)NC(=O)[C@@H](Cc2ccccc2)NC(=O)[C@H](CCN)NC1=O)[C@@H](C)O` [POLYMYXIN B2] ({Heptanoyl(6-Me)}-[Dab]T[Dab][Dab][Dab][dF]L[Dab][Dab]T; lactam 4-C), in the assay with Pseudomonas aeruginosa [7], the MIC is under 2 µg/mL.
`O=c1c2ccccc2[se]n1-c1ccccc1` [EBSELEN] had an Activity with Pseudomonas aeruginosa [8] of 80%.
As to `O=C1c2ccccc2[Se](=O)N1c1ccccc1` (stereo not given), the Activity in the assay with Pseudomonas aeruginosa [8] was found to be 80%.
Regarding `CC[C@H](C)[C@H](NC(=O)[C@H](Cc1cnc[nH]1)NCCCC[C@H](NC(=O)[C@@H](NC(=O)[C@H](CCCCN)NC(=O)[C@H](Cc1ccccc1)NC(=O)[C@H](CCCCNC(=O)[C@H](CC(C)C)NC(=O)[C@@H]1CCCN1C(=O)[C@@H](N)CCCCNC(=O)C[C@@H]1O[C@@H](C)[C@@H](O)[C@@H](O)[C@@H]1O)NC(=O)[C@H](CC(C)C)NC(=O)[C@@H]1CCCN1C(=O)[C@@H](N)CCCCNC(=O)C[C@@H]1O[C@@H](C)[C@@H](O)[C@@H](O)[C@@H]1O)[C@@H](C)CC)C(=O)N[C@H](C(=O)N[C@@H](CCCCN)C(=O)N[C@@H](Cc1ccccc1)C(=O)N[C@@H](CCCCN[C@@H](CC(C)C)C(=O)N1CCC[C@H]1C(=O)N[C@@H](CCCCNC(=O)C[C@@H]1O[C@@H](C)[C@@H](C)[C@@H](C)[C@@H]1O)C(=O)O)C(=O)N[C@@H](CC(C)C)C(=O)N1CCC[C@H]1C(=O)N[C@@H](CCCCNC(=O)C[C@@H]1O[C@@H](C)[C@@H](O)[C@@H](O)[C@@H]1O)C(=O)O)[C@@H](C)CC)C(N)=O`, the pKd (in general, the Kd on a negative log10 scale, so that one unit is a factor of ten) in [9] was 6.85.
The same measure, in the same setting: the value for `COC(=O)c1cn([C@@H]2O[C@H](CO)[C@@H](O[C@@H]3O[C@@H](C)[C@@H](O)[C@@H](O)[C@@H]3O)[C@H](O)[C@H]2NC(C)=O)nn1` was 6.54.
In the case of `CCCCCCCC[C@@H]1NC(=O)[C@@H](Cc2ccccc2)NC(=O)[C@H](CCN)NC(=O)[C@@H](NC(=O)[C@H](CCN)NC(=O)[C@@H](NC(=O)[C@H](CCN)NC(=O)CCCCCCC)[C@@H](C)O)CCNC(=O)[C@H]([C@@H](C)O)NC(=O)[C@H](CCN)NC(=O)[C@H](CCN)NC1=O` (Octanoyl-[Dab]T[Dab][Dab][Dab][dF][Gly(octyl)][Dab][Dab]T; lactam 4-C), the MIC in the assay on Pseudomonas aeruginosa [7] was under 2 µg/mL.
In turn, `CCCCCCCCCC(=O)CC(=O)Nc1ccccc1O` yielded an inhibition in the assay filed under Homo sapiens of 50%.
`C[C@@H]1O[C@H](CO)[C@@H](O)[C@H](O)[C@@H]1O`: the pKd in [9] was 4.80.
With `O=C(Nc1ccc(O)c(=O)cc1)Nc1cccc2ccccc12`, the pIC50 against Elastase is 6.00.

The values above are taken from ChEMBL document CHEMBL5257018, “Novel Strategies for the Treatment of Pseudomonas aeruginosa Infections” (J Med Chem, 2016).
